The results in this text go back to paper PMC4853715, “Design, Synthesis and Antitumor Activity of Novel link-bridge and B-Ring Modified Combretastatin A-4 (CA-4) Analogues as Potent Antitubulin Agents” (Scientific Reports, 2016).

As a reminder, the IC50 is the concentration that gives 50% inhibition.

The test system of one series is A549. Kind of series: MTT assay, antiproliferative activity. It counts as cell-based. Particulars: Homo sapiens, 48 h, ± SD. The method, then: (§1) The in vitro anticancer activities of the prepared compounds against HepG2, Hela, MCF-7, A549, HT-29 and SSC-4 cell lines were evaluated as described in the literature. Target tumor cells were grown to log phase in DMEM medium supplemented with 10% fetal bovine serum. After reaching a dilution of 1 × 10^5 cells Ml^−1 with the medium, 100 μL of the obtained cell suspension was added to each well of 96-well culture plates. Subsequently, incubation was performed at 37 °C in 5% CO2 atmosphere for 12 h before the cytotoxicity assessment. Tested samples at preset concentrations were added to 6 wells with CA-4 being employed as a positive reference. After 48 h exposure period, 25 μL of PBS containing 2.5 mg mL^−1 of MTT (Sigma, USA) was added to each well. After 4 h, the medium was replaced by 150 μL DMSO to dissolve the purple formazan crystals produced. The absorbance at 570 nm of each well was measured with Synergy™ 2 Multi-Mode Microplate Reader. Cell viability (%) was calculated using the following equation: cell viability (%) = (Atreatment/Acontrol) × 100%. The data represented the mean of three independent experiments in triplicate and were expressed as means ± SD.
(Tetrazolium assays rely on reduction of a dye to a coloured formazan, in cell work by metabolically active cells.)

The subject of another series is HepG2. As to the kind of experiment: MTT assay, antiproliferative activity. The following applies: Homo sapiens, 48 h, ± SD. It counts as cell-based. The method, then: as §1
In a further series the test system is MCF-7. Kind of series: MTT assay, antiproliferative activity. It counts as cell-based. Particulars: Homo sapiens, MCF7; MCF-7, MTT, 48 h, ± SD. The method, then:
as §1

The subject of another series is SSC-4. As to the kind of experiment: MTT assay, antiproliferative activity. It counts as cell-based. The following applies: Homo sapiens; SSC-4, MTT, 48 h, ± SD. The method, then: as §1
Series [1] deals with Bax, PARP, Bcl-2, Caspase3 in A549 cells. As to the kind of experiment: Western blot of apoptosis-related proteins. It counts as cell-based, human. The protocol:
(§2) Total cellular proteins are extracted with lysis buffer (50 mmol/l Tris [pH 7.4], 150 mmol/l NaCl, 1% Triton X-100, 1% deoxycholicphenyl methylsulfonyl fluoride, 1 mg/ml aprotinin, 5.0 mmol/l sodium pyrophosphate, […] leupeptin, 0.1 mmol/l phenylmethylsulfonyl fluoride, and 1 mmol/l DTT). Protease inhibitors are added immediately before use. The cells are harvested at the end of treatment and extracted for western blot analysis as described previously. After washing twice with PBS, the cultured cells were collected and lysed in lysis buffer (100 mmol/l Tris-Cl, pH 6.8, 4% (m/v) SDS, 20% (v/v) glycerol, 200 mmol/l β-mercaptoethanol, 1 mmol/l phenylmethylsulfonyl fluoride, and […] aprotinin). The lysates were centrifuged at 13,000 × g for 15 min at 4 °C. The concentration of total proteins was measured using the BCA assay method with Varioskan spectrofluorometer and spectrophotometer (Thermo) at 562 nm. Protein samples were separated with 15% SDS-PAGE and transferred onto the polyvinyldifluoride (PVDF) membranes (Millipore, IPVH 304 F0). Immune complexes were formed by incubation of proteins with primary antibodies overnight at 4 °C followed by IRDye^TM 800 conjugated second antibody for 1 hour at 37 °C. Immunoreactive protein bands were detected with an Odyssey Scanning System (LI-COR Biosciences, 9201-03). Antibodies: primary antibodies of cyclin B1, Cdc2, p-Cdc2 (Thr14/Tyr15), Cdc25C, and p21WAF1/Cip1 were all obtained from EPITOMICS (Abcam, Cambridge, UK); antibodies of Bax and Bcl-2 were obtained from Bioworld (Bioworld Technology, Inc., MN, USA); antibodies of caspase-3, and PARP were all obtained from Santa Cruz (Santa Cruz, CA); and antibody of GAPDH was from Boster (Wuhan, China). The secondary antibodies peroxidase-conjugated affinipure Goat Anti-Mouse IgG (H + L) (111-035-003), peroxidase-conjugated affinipure Goat Anti-Rabbit IgG (H + L) (111-035-003) were obtained from Jackson Immuno Research Laboratories, Inc. (USA).

Series [2] deals with Cyclin B1, Cdc25c, Cdc2, P21 in A549 cells. As to the kind of experiment: Western blot of G2/M-related proteins. It counts as cell-based, human. Particulars: A549, 0.5-2.0 μM 48 h; 3.0 μM 12-48 h. The protocol: as §2
(In general: Immunoblotting shows a protein as a band on a membrane.)

Series [3] relates to Tubulin isolated from porcine brain tissue. Kind of series: Tubulin polymerization assay (kit, absorbance 340 nm). In kind it is biochemical. The following applies: 37 °C. The protocol: Tubulin polymerization was determined with the tubulin polymerization assay kit (Cytoskeleton, Denver, CO which was purchased from Cytoskeleton, Beyotime, China. Tubulin isolated from porcine brain tissue was used in this commercial kit.) It is based on the principal that light is scattered by microtubules to an extent that is proportional to the concentration of the microtubule polymer. Compounds that interact with tubulin will alter the polymerization of tubulin, and this can be detected using a spectrophotometer. Tubulin polymerization dynamics was monitored through measuring the change of absorbance at 340 nm every 2 min for 30 min at 37 °C on a spectrophotometer (Perkin-Elmer).

The nature of series [4]: Body weight of treated xenograft mice. The following applies: whole treatment period. It counts as in vivo, BALB/c nude mice. The protocol: Male BALB/c nude mice, five weeks old and weighing 18–22 g, were supplied by Shanghai Laboratory Animal Limited Company. The mice were raised in air-conditioned rooms under controlled lighting (12 h light-dark cycle at 24 °C) and were fed with standard laboratory food and water ad libitum. Before injection into the mice, the A549 cells were harvested by trypsinization and washed three times with cold serum-free medium and then injected in a total volume of 0.1 mL using a 1 mL latex-free syringe (BD) within 30 min of harvest. Mice were inoculated subcutaneously with A549 cells (5.0 × 10^6) on their shoulders. […] The control group received 0.9% normal saline. Tumor size was measured once every 2 days in two per-pendicular dimensions with Vernier calipers and converted to tumor volume (TV) using the formula: (ab^2)/2, where a and b refer to the longer and shorter dimensions, respectively. The body weight of the animals was measured twice a week to assess toxicity of the treatments at the same time as the tumor dimension measurement and the mortality was monitored daily. After the treatments for eight weeks, the animals were euthanized by cervical dislocation. This study conformed to the Guide for the Care and Use of Laboratory Animals as published by the US National Institutes of Health and was approved by the Institutional Ethics Review Board of Nanjing University.

In the case of `COc1cc(/C=N/NC(=O)c2cn(Cc3ccccc3)c3ccccc23)cc(OC)c1OC` [Compound 7], the concentration for half-maximal inhibition (IC50) in the series with A549 is 80 ± 10 nM; in the series on HepG2, 630 ± 120 nM; with MCF-7 it was 640 ± 110 nM; in the series with SSC-4, 35600 ± 1910 nM. Also, the “level of Bax” value in series [1] (A549, 0.5, 1 and 2 μM, 48 h) is given as “efficiently up-regulated”. Besides, the “level of anti-apoptotic proteins (Bcl-2, Bcl-xl)” value in series [1] (A549, 0.5, 1 and 2 μM, 48 h) is on record as “down-regulated”. In addition, the “cleaved caspase-3 and PARP” value in series [1] (A549, 48 h) is listed as “up regulation”. The cdc25c expression entry in series [2] is “down-regulated in a dose-dependent and time-dependent manner”. Further, in series [2], the cyclinB1 expression result is “down-regulated in a dose-dependent and time-dependent manner”. In addition, the p21 expression result in series [2] is “increased”. Further, the “tubulin polymerization (in words)” value in series [3] (1.0 μM) is “slightly inhibiting”; in series [3] (5.0 μM) it was “nearly completely blocked”. Moreover, in series [4], the “body weight changes during treatment” value was “no significant weight changes”.
